From patent publication US20190070170A1, “METHOD OF S[…]-1” (Macau University of Science and Technology, priority 2017, published 2019) come the findings set out here.

For assay [1], the system named is mPGES-1. In words: mPGES-1 protein in microsomes of inflamed paw of carrageenan-induced rats (western blotting). Conditions: SIN 25, 50, 100 mg/kg or DEX 2 mg/kg i.p. In kind it is in vivo, SD rats.
Protocol: The model of carrageenan-induced paw edema was performed with SD rats (150-200 g). […] Briefly, rats were fasted for 12 h before experiment and intraperitoneal injection was performed with three different doses (25, 50 and 100 mg/kg) of SIN, or DEX (reference drug, 2 mg/kg) or 0.9% saline (Vehicle and Normal group rats), at 2 h prior to the induction of paw edema. Paw edema was induced by subcutaneous injection of 100 μl of 1% (w/v) freshly prepared λ-carrageenan (Sigma, St Louis, Mo., USA) diluted in saline in the right hind foot pad. 100 μl sterile saline was injected to the rats in the right hind paw as normal control.
After accomplish the experiment, rats were sacrificed by injection of dorminal, which contains 20% pentobarbital and followed by cervical dislocation. The paw tissues were removed and freshly frozen in liquid nitrogen immediately and stored at −80° C.
In the next assay the test system is COX-2. In words: COX-2 protein in microsomes of inflamed paw of carrageenan-induced rats (western blotting). In kind it is in vivo, SD rats. To be noted: SIN or DEX pretreatment i.p. As for the experimental part:
The model of carrageenan-induced paw edema was performed with SD rats (150-200 g). The carrageenan-induced paw edema was performed in SD rats (150-200 g) by subcutaneously injection λ-carrageenan as described in Liu J. et al., Pharmacological research 2016, 111 and Luo P. et al., J. Pharmacol. Exp. Ther. 2010. Briefly, rats were fasted for 12 h before experiment and intraperitoneal injection was performed with three different doses (25, 50 and 100 mg/kg) of SIN, or DEX (reference drug, 2 mg/kg) or 0.9% saline (Vehicle and Normal group rats), at 2 h prior to the induction of paw edema. […] Paw volumes (ml) of right hind foot of each rat were measured using a plethysmometer (type 7150; UGO Basile, Comerio, Italy) at 0 h (before carrageenan injection) and then again at 1, 2, 3 and 4 h after the injection of carrageenan or saline. The percentage of paw edema of the right hind paws of all groups were calculated at different time points by the following equation: […]
(§1) Whole-cell and nuclear proteins were obtained using RIPA lysis buffer (CST, Boston, Mass., USA) and Nuclear and Cytoplasmic Extraction Reagents kit from Thermo Scientific (Asheville, N.C., USA), respectively. […] The levels of protein expression were measured using Odyssey v3.0 software from Li-COR (Lincoln, Nebr., USA).

The subject of assay [2] is mPGES-1. In words: mPGES-1 protein expression in hind paws of CIA DBA/1 mice. In kind it is in vivo. Conditions: SIN 100 mg/kg i.p. or MTX 10 mg/kg/week p.o. How it is done:
Female DBA/1 mice (8-9 weeks old) were purchased from Shanghai SiLaike (SLAC) Laboratory Animal Company (Shanghai, China) and fed with a chow diet and water at room temperature. Equal volume of complete Freuend's adjuvant (CFA) and Bovine Type II Collagen (CII) were mixed and emulsified using a homogenizer (13,000 rpm) on ice. On day 0, DBA/1 mice were immunized by injecting 50 μl of CII in CFA in the tail, approximately 2 cm from the base of the tail. […] The incidence of joint swelling in each group was recorded every two days since drug treatment. […]
Frozen paws were pulverized in liquid nitrogen using a stainless steel mortar and pestle, then re-suspended in 8 volumes of ice-cold PBS from Invitrogen (San Diego, Calif., USA) with 2.6 mM DTT from Promega (Madison, Wis., USA) and 2×Complete Protease Inhibitor mixture from Roche (Mannheim, Germany), and homogenized on ice bath using a tissue homogenizer from T25 digital, IKA (Stanfen, Germany) at 10,000 rpm/min for 5 min. […] The protein concentrations were measured using a Bio-Rad protein assay kit (Hercules, Calif., USA). […]
as §1

The test system of another assay is CREB. As to the kind of experiment: CREB pathway (p-CREB) in LPS-stimulated rat peritoneal macrophages (western blotting). Format: cell-based. Conditions: SIN 1 h, LPS 1 μg/ml 15 min or 1 h. How it is done:
Sprague-Dawley (SD) rats from the University of Hong Kong were housed in cages with free access to food and water. Peritoneal macrophages of SD rats were isolated as described in Liu J. et al., Pharmacological research 2016, 111:303-315. Briefly, untreated rats were sacrificed and after laparotomy, about 50 ml cold sterile Hank's balanced salt solution (HBSS) was used to lavage the peritoneal cavity at twice, and then the peritoneal lavage fluid was collected and centrifuged at 1500 rpm for 10 min. The cell pellets was suspended at a density 1.5×10^6 cells/ml in pre-hearted DMEM medium with 10% heat-inactivated FBS, penicillin G (100 units/ml), streptomycin ([…]), and L-glutamine (2 mM), followed by seeding in 6-well plates at a density of 4.5×10^6 cells and incubation for 2 h. Then the medium were discarded to remove the non-adherent cells. The adherent cells were further washed for two times with pre-heated DMEM medium to remove floating cells. Next, cells were pre-treated with various concentration of SIN for 1 h, followed by stimulation with LPS (1 μg/ml).
as §1

For the molecule `COC1=C[C@@H]2[C@@H]3Cc4ccc(OC)c(O)c4[C@]2(CCN3C)CC1=O` [SIN, sinomenine], the “mPGES-1 protein expression in inflamed paw tissues” value in the assay with mPGES-1 [1] is “strongly down-regulated”. Besides, the “COX-2 level in inflamed paw” value in the assay with COX-2 is “did not produce observable effects”. Also, the “mPGES-1 protein expression in inflamed hind paws” value in the assay on mPGES-1 [2] is “significantly decreased”. Besides, the “influence on CREB pathway” value with CREB is reported as “No observable effects”.
